Assay results reported in PubChem BioAssay (NCI).
Several values for one entry are separate records, joined by “and”; a condition that tells them apart may be missing. Equal entries are not always repeated.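 Step 1: Grow cells in 96-well plates. Step 2: Expose to compound for 48 hours at 5 concentrations. Step 3: Interpolate endpoints linearly; if unreached, use highest concentration. GI50 is the concentration that inhibits growth by half. TGI: concentration producing complete growth inhibition.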

Legend:
Experiment in all cases: DTP human tumour cell line panel, 48 h
MDA-MB-468 breast = tested on: MDA-MB-468 breast
HOP-62 NSCLC = tested on: HOP-62 NSCLC
RXF 393 renal = tested on: RXF 393 renal
HCT-116 colon = tested on: HCT-116 colon
NCI-H522 lung = tested on: NCI-H522 lung
NCI-H23 lung = tested on: NCI-H23 lung
HS 578T breast = tested on: HS 578T breast
OVCAR-4 ovarian = tested on: OVCAR-4 ovarian
CCRF-CEM leukemia = tested on: CCRF-CEM leukemia
A498 renal = tested on: A498 renal
SNB-75 CNS = tested on: SNB-75 CNS
MCF7 breast = tested on: MCF7 breast
SF-295 CNS = tested on: SF-295 CNS
UACC-62 melanoma = tested on: UACC-62 melanoma
IGROV1 ovarian = tested on: IGROV1 ovarian
CAKI-1 renal = tested on: CAKI-1 renal
OVCAR-3 ovarian = tested on: OVCAR-3 ovarian
SK-OV-3 ovarian = tested on: SK-OV-3 ovarian
786-0 renal = tested on: 786-0 renal
EKVX NSCLC = tested on: EKVX NSCLC
OVCAR-8 ovarian = tested on: OVCAR-8 ovarian
SNB-19 CNS = tested on: SNB-19 CNS
BT-549 breast = tested on: BT-549 breast
ACHN renal = tested on: ACHN renal
SW-620 colon = tested on: SW-620 colon
OVCAR-5 ovarian = tested on: OVCAR-5 ovarian
PC-3 prostate = tested on: PC-3 prostate
M14 melanoma = tested on: M14 melanoma
SK-MEL-28 melanoma = tested on: SK-MEL-28 melanoma
NCI/ADR-RES ovarian = tested on: NCI/ADR-RES ovarian
NCI-H460 lung = tested on: NCI-H460 lung
SN12C renal = tested on: SN12C renal
U251 CNS = tested on: U251 CNS
MALME-3M melanoma = tested on: MALME-3M melanoma
NCI-H226 lung = tested on: NCI-H226 lung
A549 NSCLC = tested on: A549 NSCLC
TK-10 renal = tested on: TK-10 renal
SF-539 CNS = tested on: SF-539 CNS
HCT-15 colon = tested on: HCT-15 colon
KM12 colon = tested on: KM12 colon
HL-60(TB) leukemia = tested on: HL-60(TB) leukemia
SK-MEL-2 melanoma = tested on: SK-MEL-2 melanoma
MOLT-4 leukemia = tested on: MOLT-4 leukemia
UACC-257 melanoma = tested on: UACC-257 melanoma
K-562 leukemia = tested on: K-562 leukemia
RPMI-8226 leukemia = tested on: RPMI-8226 leukemia
MDA-MB-435 = tested on: MDA-MB-435
SK-MEL-5 melanoma = tested on: SK-MEL-5 melanoma
COLO 205 colon = tested on: COLO 205 colon
HOP-92 NSCLC = tested on: HOP-92 NSCLC
SF-268 CNS = tested on: SF-268 CNS
HT29 colon = tested on: HT29 colon
DU-145 prostate = tested on: DU-145 prostate
HCC-2998 colon = tested on: HCC-2998 colon
LOX IMVI melanoma = tested on: LOX IMVI melanoma
T-47D breast = tested on: T-47D breast

CC(C)NCCCCCNc1cc(O)cc2cccnc12
GI50 (MDA-MB-468 breast): 2.29 µM | TGI (MDA-MB-468 breast): 6.2 µM

CS(=O)(=O)c1ccc(-c2[nH]c3ccc(F)cc3c2/C=N/NC(N)=S)cc1
GI50 (MDA-MB-468 breast): 2.67 µM | TGI (MDA-MB-468 breast): 13.4 µM

Cc1cccc2c1NC(=O)C2(c1ccc(O)cc1)c1ccc(O)cc1
GI50 (MDA-MB-468 breast): < 0.0181 µM | TGI (MDA-MB-468 breast): 4.24 µM

COc1cc(C(=O)Nc2cc(O)c(C/C=C(\C)CCC=C(C)C)c(O)c2)cc2c1O[C@]1(C)CC[C@@H](O)C(C)(C)[C@H]1C2
GI50 (MDA-MB-468 breast): 0.816 µM and 0.212 µM | TGI (MDA-MB-468 breast): 4.95 µM

Cc1csc(-c2ccc3c(c2)COC3(CCCN(C)C)c2ccc(F)cc2)c1 (centres undefined)
GI50 (MDA-MB-468 breast): 1.7 µM | TGI (MDA-MB-468 breast): 3.38 µM

CC(=O)Nc1ccc(S(=O)(=O)c2ccc(NC(C)=O)cc2)cc1
GI50 (MDA-MB-468 breast): 64.8 µM | TGI (MDA-MB-468 breast): > 100 µM

CO[C@@H]1CSSC1Cn1nc(-c2ccc(Oc3ccccc3)cc2)c2c(N)ncnc21 (some centres undefined)
GI50 (HOP-62 NSCLC): 16.4 µM | TGI (HOP-62 NSCLC): > 100 µM | GI50 (RXF 393 renal): 50.3 µM | TGI (RXF 393 renal): > 100 µM | GI50 (HCT-116 colon): 5.36 µM | TGI (HCT-116 colon): > 100 µM | GI50 (NCI-H522 lung): 41.8 µM | TGI (NCI-H522 lung): > 100 µM | GI50 (NCI-H23 lung): > 100 µM | TGI (NCI-H23 lung): > 100 µM | GI50 (HS 578T breast): > 100 µM | TGI (HS 578T breast): > 100 µM | GI50 (OVCAR-4 ovarian): > 100 µM | TGI (OVCAR-4 ovarian): > 100 µM | GI50 (CCRF-CEM leukemia): 4.29 µM | TGI (CCRF-CEM leukemia): > 100 µM | GI50 (A498 renal): 99 µM | TGI (A498 renal): > 100 µM | GI50 (SNB-75 CNS): > 100 µM | TGI (SNB-75 CNS): > 100 µM | GI50 (MCF7 breast): 6.87 µM | TGI (MCF7 breast): > 100 µM | GI50 (SF-295 CNS): 62 µM | TGI (SF-295 CNS): > 100 µM | GI50 (UACC-62 melanoma): 14.5 µM | TGI (UACC-62 melanoma): > 100 µM | GI50 (IGROV1 ovarian): > 100 µM | TGI (IGROV1 ovarian): > 100 µM | GI50 (CAKI-1 renal): > 100 µM | TGI (CAKI-1 renal): > 100 µM | GI50 (OVCAR-3 ovarian): 63.5 µM | TGI (OVCAR-3 ovarian): > 100 µM | GI50 (SK-OV-3 ovarian): 3.25 µM | TGI (SK-OV-3 ovarian): 24.6 µM | GI50 (786-0 renal): > 100 µM | TGI (786-0 renal): > 100 µM | GI50 (EKVX NSCLC): 7.29 µM | TGI (EKVX NSCLC): > 100 µM | GI50 (OVCAR-8 ovarian): > 100 µM | TGI (OVCAR-8 ovarian): > 100 µM | GI50 (SNB-19 CNS): > 100 µM | TGI (SNB-19 CNS): > 100 µM | GI50 (BT-549 breast): > 100 µM | TGI (BT-549 breast): > 100 µM | GI50 (ACHN renal): 12.3 µM | TGI (ACHN renal): > 100 µM | GI50 (SW-620 colon): 57.9 µM | TGI (SW-620 colon): > 100 µM | GI50 (OVCAR-5 ovarian): 51.5 µM | TGI (OVCAR-5 ovarian): > 100 µM | GI50 (PC-3 prostate): 58.7 µM | TGI (PC-3 prostate): > 100 µM | GI50 (M14 melanoma): 1.99 µM | TGI (M14 melanoma): 4.35 µM | GI50 (SK-MEL-28 melanoma): 2.87 µM | TGI (SK-MEL-28 melanoma): 21 µM | GI50 (NCI/ADR-RES ovarian): > 100 µM | TGI (NCI/ADR-RES ovarian): > 100 µM | GI50 (NCI-H460 lung): 3.43 µM | TGI (NCI-H460 lung): 76.5 µM | GI50 (SN12C renal): > 100 µM | TGI (SN12C renal): > 100 µM | GI50 (U251 CNS): > 100 µM | TGI (U251 CNS): > 100 µM | GI50 (MALME-3M melanoma): 62.7 µM | TGI (MALME-3M melanoma): > 100 µM | GI50 (NCI-H226 lung): 39.7 µM | TGI (NCI-H226 lung): > 100 µM | GI50 (A549 NSCLC): 13.9 µM | TGI (A549 NSCLC): > 100 µM | GI50 (TK-10 renal): 37.9 µM | TGI (TK-10 renal): > 100 µM | GI50 (SF-539 CNS): > 100 µM | TGI (SF-539 CNS): > 100 µM | GI50 (HCT-15 colon): 33.3 µM | TGI (HCT-15 colon): > 100 µM | GI50 (KM12 colon): 8.73 µM | TGI (KM12 colon): > 100 µM | GI50 (HL-60(TB) leukemia): 6.13 µM | TGI (HL-60(TB) leukemia): > 100 µM | GI50 (SK-MEL-2 melanoma): 22.8 µM | TGI (SK-MEL-2 melanoma): > 100 µM | GI50 (MDA-MB-468 breast): 5.18 µM | TGI (MDA-MB-468 breast): 86.5 µM | GI50 (MOLT-4 leukemia): 2.24 µM | TGI (MOLT-4 leukemia): 6.52 µM | GI50 (UACC-257 melanoma): 16.2 µM | TGI (UACC-257 melanoma): > 100 µM | GI50 (K-562 leukemia): 3.6 µM | TGI (K-562 leukemia): > 100 µM | GI50 (RPMI-8226 leukemia): 43.3 µM | TGI (RPMI-8226 leukemia): > 100 µM | GI50 (MDA-MB-435): 3.19 µM | TGI (MDA-MB-435): 10.2 µM | GI50 (SK-MEL-5 melanoma): 14.8 µM | TGI (SK-MEL-5 melanoma): > 100 µM | GI50 (COLO 205 colon): 53.2 µM | TGI (COLO 205 colon): > 100 µM | GI50 (HOP-92 NSCLC): > 100 µM | TGI (HOP-92 NSCLC): > 100 µM | GI50 (SF-268 CNS): 8.22 µM | TGI (SF-268 CNS): > 100 µM | GI50 (HT29 colon): 6.82 µM | TGI (HT29 colon): > 100 µM | GI50 (DU-145 prostate): > 100 µM | TGI (DU-145 prostate): > 100 µM | GI50 (HCC-2998 colon): 21 µM | TGI (HCC-2998 colon): > 100 µM | GI50 (LOX IMVI melanoma): 43.9 µM | TGI (LOX IMVI melanoma): > 100 µM | GI50 (T-47D breast): 6.14 µM | TGI (T-47D breast): > 100 µM
